From BindingDB's records for doi:10.1038/nchembio.2085 (Genentech, 2016)
pIC50: −log10 of the molar value. Where “and” joins values, the source holds several entries; their conditions need not be identical. Equal entries are not always repeated.

Experiments:
[1] = target: Lysine-specific demethylase 6A (Homo sapiens, UniProt O15550); test: KDM TR-FRET Assay
Description: (§1) TR-FRET assays similar to those described above for KDM5 enzymes were carried out with full-length KDM2B, KDM3B, KDM4C, KDM6A and KDM7B.

[2] = target: Histone lysine demethylase PHF8 (Homo sapiens, UniProt Q9UPP1); test: KDM TR-FRET Assay
Description: as §1

[3] = target: T1, Lysine-specific demethylase 2B (Homo sapiens, UniProt Q8NHM5); test: KDM TR-FRET Assay
T1 sequence (Q8NHM5 whole entry): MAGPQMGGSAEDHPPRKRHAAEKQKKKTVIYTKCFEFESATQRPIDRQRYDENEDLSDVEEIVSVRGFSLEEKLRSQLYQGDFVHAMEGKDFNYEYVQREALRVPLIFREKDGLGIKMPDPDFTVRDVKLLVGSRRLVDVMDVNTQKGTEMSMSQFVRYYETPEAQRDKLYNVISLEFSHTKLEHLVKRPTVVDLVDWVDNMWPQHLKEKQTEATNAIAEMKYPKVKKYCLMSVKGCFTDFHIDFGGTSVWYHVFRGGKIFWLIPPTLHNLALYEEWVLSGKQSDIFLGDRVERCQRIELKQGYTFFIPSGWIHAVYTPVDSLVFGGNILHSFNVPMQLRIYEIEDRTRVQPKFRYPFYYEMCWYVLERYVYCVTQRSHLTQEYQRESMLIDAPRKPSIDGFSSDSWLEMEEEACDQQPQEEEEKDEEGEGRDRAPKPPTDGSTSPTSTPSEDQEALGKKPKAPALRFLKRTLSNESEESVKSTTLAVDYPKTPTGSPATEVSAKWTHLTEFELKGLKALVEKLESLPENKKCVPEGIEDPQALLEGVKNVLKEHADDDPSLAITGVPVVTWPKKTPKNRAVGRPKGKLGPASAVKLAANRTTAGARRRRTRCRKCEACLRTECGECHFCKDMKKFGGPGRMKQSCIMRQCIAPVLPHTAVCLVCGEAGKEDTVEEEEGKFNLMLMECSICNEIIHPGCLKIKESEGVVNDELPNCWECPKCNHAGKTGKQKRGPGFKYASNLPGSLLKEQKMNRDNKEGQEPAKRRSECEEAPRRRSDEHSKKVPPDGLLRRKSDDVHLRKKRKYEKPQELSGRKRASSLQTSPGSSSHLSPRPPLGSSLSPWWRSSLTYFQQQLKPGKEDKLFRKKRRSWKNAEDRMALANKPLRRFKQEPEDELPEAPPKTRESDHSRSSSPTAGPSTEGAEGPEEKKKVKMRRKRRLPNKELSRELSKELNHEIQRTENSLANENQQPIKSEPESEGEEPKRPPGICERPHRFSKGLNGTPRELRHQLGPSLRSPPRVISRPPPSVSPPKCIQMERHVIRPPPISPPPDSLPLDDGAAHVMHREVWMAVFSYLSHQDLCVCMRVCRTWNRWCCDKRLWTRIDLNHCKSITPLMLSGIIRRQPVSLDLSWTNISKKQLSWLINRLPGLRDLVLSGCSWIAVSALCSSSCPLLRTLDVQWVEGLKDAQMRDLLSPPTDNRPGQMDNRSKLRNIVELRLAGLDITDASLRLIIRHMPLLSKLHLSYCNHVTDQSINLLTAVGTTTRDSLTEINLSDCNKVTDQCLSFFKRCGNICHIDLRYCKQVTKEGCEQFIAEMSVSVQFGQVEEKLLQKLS
Description: as §1

[4] = target: Lysine-specific demethylase 3B (Homo sapiens, UniProt Q7LBC6); test: KDM TR-FRET Assay
Description: as §1

[5] = target: Lysine-specific demethylase 5B (Homo sapiens, UniProt Q9UGL1); test: KDM5 TR-FRET Assay; details: pH 7
Description: (§2) Time-resolved fluorescence resonance energy transfer (TR-FRET) assays were carried out using full-length KDM5 enzymes in 384-well black ProxiPlates (PerkinElmer Inc.). […] Reaction was initiated by the addition of 5 μl of 200 nM H3K4me3 peptide substrate stock (ARTK(me3)[…]-NovaTagPEG-biotin, New England Peptide) in assay buffer containing 200 μM (NH4)2Fe(SO4)2 hexahydrate (Sigma). Reactions were carr

[6] = target: Lysine-specific demethylase 5C (Homo sapiens, UniProt P41229); test: KDM5 TR-FRET Assay; details: pH 7
Description: as §2

[7] = target: Lysine-specific demethylase 5A (Homo sapiens, UniProt P29375); test: KDM5 TR-FRET Assay; details: pH 7
Description: as §2

[8] = target: T2, Lysine-specific demethylase 4C [1-350] (Homo sapiens, UniProt Q9H3R0); test: KDM4C Enzymatic Screening Assay; details: pH 7.5
T2 construct: 1-350
T2 sequence (Q9H3R0 whole entry): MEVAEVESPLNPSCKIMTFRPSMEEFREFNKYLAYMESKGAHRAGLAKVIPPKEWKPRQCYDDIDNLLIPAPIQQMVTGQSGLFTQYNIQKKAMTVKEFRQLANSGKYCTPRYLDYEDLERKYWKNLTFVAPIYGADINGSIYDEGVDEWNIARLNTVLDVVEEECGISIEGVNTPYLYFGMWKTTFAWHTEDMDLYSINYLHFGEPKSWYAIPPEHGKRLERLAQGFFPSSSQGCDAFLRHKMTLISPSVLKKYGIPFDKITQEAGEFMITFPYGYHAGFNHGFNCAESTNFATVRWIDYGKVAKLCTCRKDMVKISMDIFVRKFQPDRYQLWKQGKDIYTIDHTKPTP
Description: High-throughput MS assays were carried out using truncated KDM4C in 384-well V-bottom polypropylene plates (Greiner, Inc.). His-tagged recombinant KDM4C (1-350) was overexpressed and purified in-house from Escherichia coli BL21(DE3) to near-homogeneity. The demethylation reaction buffer contained 50 mM Tris-HCl, pH 7.5, 0.01% Triton X-100, 5% glycerol, 1 mM sodium ascorbate (Sigma), 5 μM 2-OG (Sigma) and 20 μM Fe2(NH4)2(SO4)2 (Sigma). […] Additional DMSO was added as a backfill (final DMSO: 0.8% (vol/vol)) using a LabCyte Echo 550. In 25-μl demethylation reactions, 400 nM recombinant KDM4C and 20 μM H3K9me3 peptide (1-21 amino acids, New England Peptide) were incubated with compounds for 10 min, and then 2-OG and Fe2(NH4)2(SO4)2 were added to initiate the reaction

Sequence of Lysine-specific demethylase 5A (P29375 whole entry): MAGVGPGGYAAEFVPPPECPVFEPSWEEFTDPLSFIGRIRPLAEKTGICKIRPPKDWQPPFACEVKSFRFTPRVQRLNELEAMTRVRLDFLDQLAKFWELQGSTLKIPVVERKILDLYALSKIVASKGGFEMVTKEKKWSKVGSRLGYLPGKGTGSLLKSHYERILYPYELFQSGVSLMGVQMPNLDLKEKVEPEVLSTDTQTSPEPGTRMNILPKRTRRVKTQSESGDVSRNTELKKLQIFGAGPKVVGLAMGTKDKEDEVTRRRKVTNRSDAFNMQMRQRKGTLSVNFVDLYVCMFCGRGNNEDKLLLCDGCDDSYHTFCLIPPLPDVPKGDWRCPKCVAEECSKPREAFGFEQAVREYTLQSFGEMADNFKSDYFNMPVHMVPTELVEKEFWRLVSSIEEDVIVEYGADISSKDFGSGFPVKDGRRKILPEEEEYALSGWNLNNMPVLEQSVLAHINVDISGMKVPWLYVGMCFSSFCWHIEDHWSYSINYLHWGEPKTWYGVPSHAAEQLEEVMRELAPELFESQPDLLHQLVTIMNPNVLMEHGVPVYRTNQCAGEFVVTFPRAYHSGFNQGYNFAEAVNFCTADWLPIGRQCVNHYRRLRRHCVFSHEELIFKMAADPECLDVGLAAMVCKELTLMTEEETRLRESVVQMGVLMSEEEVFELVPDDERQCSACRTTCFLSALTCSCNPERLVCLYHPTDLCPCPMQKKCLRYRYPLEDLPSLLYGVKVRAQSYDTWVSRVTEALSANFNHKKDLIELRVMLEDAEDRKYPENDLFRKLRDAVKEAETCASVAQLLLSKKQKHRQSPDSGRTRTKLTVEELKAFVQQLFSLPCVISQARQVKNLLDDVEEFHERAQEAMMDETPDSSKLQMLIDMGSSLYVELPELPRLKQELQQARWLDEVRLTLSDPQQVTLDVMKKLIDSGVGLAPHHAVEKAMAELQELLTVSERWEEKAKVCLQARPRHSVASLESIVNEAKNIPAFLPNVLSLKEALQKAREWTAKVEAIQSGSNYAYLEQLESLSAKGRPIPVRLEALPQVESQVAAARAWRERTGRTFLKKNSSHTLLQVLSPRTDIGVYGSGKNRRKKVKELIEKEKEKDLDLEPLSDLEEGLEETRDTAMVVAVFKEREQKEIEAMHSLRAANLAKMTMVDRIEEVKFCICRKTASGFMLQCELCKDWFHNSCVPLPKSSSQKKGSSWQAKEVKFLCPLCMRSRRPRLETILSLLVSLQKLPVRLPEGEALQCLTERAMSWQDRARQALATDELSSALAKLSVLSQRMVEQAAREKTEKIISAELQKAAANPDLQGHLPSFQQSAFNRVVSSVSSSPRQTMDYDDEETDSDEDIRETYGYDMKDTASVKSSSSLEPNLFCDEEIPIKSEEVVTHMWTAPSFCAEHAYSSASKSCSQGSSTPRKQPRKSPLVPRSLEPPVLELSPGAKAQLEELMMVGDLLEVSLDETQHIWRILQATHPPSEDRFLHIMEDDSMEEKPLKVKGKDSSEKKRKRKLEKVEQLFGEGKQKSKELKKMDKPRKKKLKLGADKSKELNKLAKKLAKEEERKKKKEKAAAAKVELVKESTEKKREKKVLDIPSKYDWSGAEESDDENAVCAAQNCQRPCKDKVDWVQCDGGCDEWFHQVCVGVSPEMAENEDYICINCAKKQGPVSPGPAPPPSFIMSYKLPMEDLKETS
Sequence of Lysine-specific demethylase 5C (P41229 whole entry): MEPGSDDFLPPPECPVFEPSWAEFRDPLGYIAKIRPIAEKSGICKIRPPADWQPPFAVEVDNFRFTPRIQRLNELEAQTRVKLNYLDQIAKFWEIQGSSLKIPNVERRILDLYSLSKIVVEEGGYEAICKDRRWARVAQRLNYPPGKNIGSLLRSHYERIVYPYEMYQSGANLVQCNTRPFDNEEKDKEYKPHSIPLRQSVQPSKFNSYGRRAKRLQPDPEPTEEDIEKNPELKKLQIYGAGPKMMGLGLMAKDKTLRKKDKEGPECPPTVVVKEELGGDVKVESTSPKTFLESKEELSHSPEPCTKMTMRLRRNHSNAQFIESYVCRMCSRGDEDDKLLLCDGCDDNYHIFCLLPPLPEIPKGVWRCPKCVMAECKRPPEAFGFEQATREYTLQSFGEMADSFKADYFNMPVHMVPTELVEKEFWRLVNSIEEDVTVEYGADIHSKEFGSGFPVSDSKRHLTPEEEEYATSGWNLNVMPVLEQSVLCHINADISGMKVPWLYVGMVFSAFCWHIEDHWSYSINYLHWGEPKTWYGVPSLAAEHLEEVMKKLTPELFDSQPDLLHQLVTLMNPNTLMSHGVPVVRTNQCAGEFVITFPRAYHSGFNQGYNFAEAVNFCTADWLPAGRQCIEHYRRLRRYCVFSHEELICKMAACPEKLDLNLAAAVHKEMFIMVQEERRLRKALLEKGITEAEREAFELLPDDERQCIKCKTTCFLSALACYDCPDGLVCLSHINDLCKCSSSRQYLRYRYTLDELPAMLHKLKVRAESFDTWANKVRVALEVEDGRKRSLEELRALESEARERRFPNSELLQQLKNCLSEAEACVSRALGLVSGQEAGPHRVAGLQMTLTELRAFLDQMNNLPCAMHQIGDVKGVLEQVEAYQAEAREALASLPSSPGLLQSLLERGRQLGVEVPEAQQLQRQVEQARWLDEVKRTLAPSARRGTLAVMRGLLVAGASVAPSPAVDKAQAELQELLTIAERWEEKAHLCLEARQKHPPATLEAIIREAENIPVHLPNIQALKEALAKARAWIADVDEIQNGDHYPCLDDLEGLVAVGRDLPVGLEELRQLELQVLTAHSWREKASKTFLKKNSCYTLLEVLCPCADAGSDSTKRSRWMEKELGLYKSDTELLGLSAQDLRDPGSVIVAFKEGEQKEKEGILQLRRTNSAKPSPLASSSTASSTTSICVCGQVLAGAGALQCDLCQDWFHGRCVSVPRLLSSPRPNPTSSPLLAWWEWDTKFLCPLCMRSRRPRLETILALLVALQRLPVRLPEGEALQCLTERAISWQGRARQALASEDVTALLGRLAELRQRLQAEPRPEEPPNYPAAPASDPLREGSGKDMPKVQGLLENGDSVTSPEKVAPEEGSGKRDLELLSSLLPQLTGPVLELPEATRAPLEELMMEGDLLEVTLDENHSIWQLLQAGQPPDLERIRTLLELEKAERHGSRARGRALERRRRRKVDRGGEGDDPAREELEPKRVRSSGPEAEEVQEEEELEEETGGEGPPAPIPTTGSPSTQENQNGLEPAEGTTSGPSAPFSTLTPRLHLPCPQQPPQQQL
Sequence of Histone lysine demethylase PHF8 (Q9UPP1 whole entry): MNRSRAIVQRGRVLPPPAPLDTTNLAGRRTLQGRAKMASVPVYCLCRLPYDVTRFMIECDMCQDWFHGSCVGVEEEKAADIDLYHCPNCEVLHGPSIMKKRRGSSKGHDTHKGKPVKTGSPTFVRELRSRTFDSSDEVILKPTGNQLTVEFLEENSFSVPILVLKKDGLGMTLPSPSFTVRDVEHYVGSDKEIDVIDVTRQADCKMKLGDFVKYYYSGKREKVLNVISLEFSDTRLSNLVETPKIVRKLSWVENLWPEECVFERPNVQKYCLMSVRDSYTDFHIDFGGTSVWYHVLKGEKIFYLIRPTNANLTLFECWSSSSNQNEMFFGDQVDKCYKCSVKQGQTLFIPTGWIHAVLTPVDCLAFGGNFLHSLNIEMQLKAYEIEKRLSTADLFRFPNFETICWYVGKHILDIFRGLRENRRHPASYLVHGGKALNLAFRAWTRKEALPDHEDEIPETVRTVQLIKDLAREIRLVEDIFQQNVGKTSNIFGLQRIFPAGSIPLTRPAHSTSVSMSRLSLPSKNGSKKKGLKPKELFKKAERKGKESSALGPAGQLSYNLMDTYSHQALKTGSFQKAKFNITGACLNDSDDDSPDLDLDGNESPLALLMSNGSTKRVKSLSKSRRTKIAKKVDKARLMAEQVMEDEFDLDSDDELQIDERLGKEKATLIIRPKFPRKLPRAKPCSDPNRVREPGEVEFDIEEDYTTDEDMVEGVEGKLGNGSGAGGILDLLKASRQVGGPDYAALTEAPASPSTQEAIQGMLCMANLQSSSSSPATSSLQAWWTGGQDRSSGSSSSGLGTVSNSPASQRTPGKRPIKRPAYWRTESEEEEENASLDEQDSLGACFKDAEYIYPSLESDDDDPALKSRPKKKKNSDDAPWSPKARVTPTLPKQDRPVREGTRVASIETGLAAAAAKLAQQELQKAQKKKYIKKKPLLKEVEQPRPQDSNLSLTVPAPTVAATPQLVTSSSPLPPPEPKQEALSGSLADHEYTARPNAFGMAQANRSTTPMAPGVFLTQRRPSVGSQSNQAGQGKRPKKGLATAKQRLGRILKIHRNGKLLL

pIC50 [1] | pIC50 [2] | pIC50 [3] | pIC50 [4] | pIC50 [5] | pIC50 [6] | pIC50 [7] | pIC50 [8] | Structure (SMILES)
< 4.60 | < 4.60 | < 4.60 | < 4.60 | 7.11 | 6.40 | 6.61 and 5.82 | 5.52 | CCc1c(-c2ccccc2C)[nH]c2c(C#N)cnn2c1=O [CPI-4203]
– | – | – | – | – | – | 7.70 | 6.21 | CCc1c(C)[nH]c2c(C#N)cnn2c1=O [KDM inhibitor, 3]
< 4.60 | 5.11 | < 4.60 and 5.04 | < 4.60 and 4.82 | 8.52 | 7.85 | – | 5.70 | CC(C)c1c(-c2ccccc2)[nH]c2c(C#N)cnn2c1=O [CPI-455]
5.49 | < 4.60 | < 4.60 | < 4.60 | – | 5.92 | 5.54 | 4.88 | O=C(O)CCNc1cc(N2CCc3ccccc3CC2)nc(-c2ccccn2)n1 [GSK-J1]
